In article PMC3243944 (Biopolymers, 2011):
Where no end group is shown, it is not given here.

Assays:
[1] = Solubility in aqueous buffer; assay type: physicochemical
[2] = tested on: 5-helix bundle (5HB) protein construct derived from the hRSV fusion (F) protein; conditions: protein-based (5HB) FP screening assay; cited from earlier work

ISQVNEKINQSLAFIRKSDE [C20]
solubility [1]: < 2000 µg/mL | Binding affinity to the 5HB [2]: low micromolar
